In the test the target is T1, HP0826 (β1,4-galactosyltransferase) (Helicobacter pylori, UniProt O25500).
T1 construct: gene HP_0826; recombinantly expressed per earlier literature (Fang et al., 2018); used as cell lysate in synthesis
Briefly: acceptor specificity test. The test is classed as cell-based. Particulars: UDP-Gal donor; enzyme preparation not given.

T1 sequence (O25500 entry or part of it): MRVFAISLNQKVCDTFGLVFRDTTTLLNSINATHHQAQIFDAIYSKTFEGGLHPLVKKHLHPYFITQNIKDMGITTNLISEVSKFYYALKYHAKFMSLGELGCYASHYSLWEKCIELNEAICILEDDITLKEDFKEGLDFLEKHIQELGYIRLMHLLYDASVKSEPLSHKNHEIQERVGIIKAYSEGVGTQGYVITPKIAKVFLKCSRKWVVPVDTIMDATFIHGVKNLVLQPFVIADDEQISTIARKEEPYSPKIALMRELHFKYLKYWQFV

`CC(=O)N[C@H]1[C@H](OCCCCCCN=[N+]=[N-])O[C@H](CO)[C@@H](O)[C@@H]1O` [GlcNAc-C6N3]: the acceptor specificity test entry is “HP0826 exhibited excellent enzymatic activity on GlcNAc-C6N3”.

The values are drawn from paper PMC9194828, “Chemoenzymatic Synthesis of Asymmetrically Branched Human Milk Oligosaccharide Lacto-N-Hexaose” (Frontiers in Chemistry, 2022).
